Target: human mGlu5a receptor (Homo sapiens (Human), UniProt P41594)
Test: Intracellular Ca2+ mobilization assay (mGlu5 PAM)
Type: cell-based
Conditions: for EC50: HEK-293 cells stably transfected with human mGlu5a, L-glutamate added at EC20 after pre-incubation with test compound, read-out: EC50 (nM) mGlu5PAM; for Emax: maximal response in % of the maximal stimulatory effect obtained with saturating concentrations of L-glutamate, read-out: Eff. (%)
Experimental: A monoclonal HEK-293 cell line stably transfected with a cDNA encoding for the human mGlu5a receptor was generated; for the work with mGlu5 Positive Allosteric Modulators (PAMs), a cell line with low receptor expression levels and low constitutive receptor activity was selected to allow the differentiation of agonistic versus PAM activity. Cells were cultured according to standard protocols (Freshney, 2000) in Dulbecco's Modified Eagle Medium with high glucose supplemented with 1 mM glutamine, 10% (vol/vol) heat-inactivated bovine calf serum, Penicillin/Streptomycin, 50 μg/ml hygromycin and 15 μg/ml blasticidin (all cell culture reagents and antibiotics from Invitrogen, Basel, Switzerland).
About 24 hrs before an experiment, 5×10^4 cells/well were seeded in poly-D-lysine coated, black/clear-bottomed 96-well plates. The cells were loaded with 2.5 μM Fluo-4AM in loading buffer (1×HBSS, 20 mM HEPES) for 1 hr at 37° C. and washed five times with loading buffer. The cells were transferred into a Functional Drug Screening System 7000 (Hamamatsu, Paris, France), and 11 half logarithmic serial dilutions of test compound at 37° C. were added and the cells were incubated for 10-30 min. with on-line recording of fluorescence. Following this pre-incubation step, the agonist L-glutamate was added to the cells at a concentration corresponding to EC20 (typically around 80 μM) with on-line recording of fluorescence; in order to account for day-to-day variations in the responsiveness of cells, the EC20 of glutamate was determined immediately ahead of each experiment by recording of a full dose-response curve of glutamate.
Responses were measured as peak increase in fluorescence minus basal (i.e. fluorescence without addition of L-glutamate), normalized to the maximal stimulatory effect obtained with saturating concentrations of L-glutamate. Graphs were plotted with the % maximal stimulatory using XLfit, a curve fitting program that iteratively plots the data using Levenburg Marquardt algorithm. The single site competition analysis equation used was y=A+((B−A)/(1+((x/C)D))), where y is the % maximal stimulatory effect, A is the minimum y, B is the maximum y, C is the EC50, x is the log10 of the concentration of the competing compound and D is the slope of the curve (the Hill Coefficient). From these curves the EC50 (concentration at which half maximal stimulation was achieved), the Hill coefficient as well as the maximal response in % of the maximal stimulatory effect obtained with saturating concentrations of L-glutamate were calculated.
A depression of the signal observed after addition of the EC20 concentration of L-glutamate was indicative of an inhibitory activity of the test compound.

human mGlu5a receptor, sequence (P41594 other isoform, or with tags, fused parts or gaps): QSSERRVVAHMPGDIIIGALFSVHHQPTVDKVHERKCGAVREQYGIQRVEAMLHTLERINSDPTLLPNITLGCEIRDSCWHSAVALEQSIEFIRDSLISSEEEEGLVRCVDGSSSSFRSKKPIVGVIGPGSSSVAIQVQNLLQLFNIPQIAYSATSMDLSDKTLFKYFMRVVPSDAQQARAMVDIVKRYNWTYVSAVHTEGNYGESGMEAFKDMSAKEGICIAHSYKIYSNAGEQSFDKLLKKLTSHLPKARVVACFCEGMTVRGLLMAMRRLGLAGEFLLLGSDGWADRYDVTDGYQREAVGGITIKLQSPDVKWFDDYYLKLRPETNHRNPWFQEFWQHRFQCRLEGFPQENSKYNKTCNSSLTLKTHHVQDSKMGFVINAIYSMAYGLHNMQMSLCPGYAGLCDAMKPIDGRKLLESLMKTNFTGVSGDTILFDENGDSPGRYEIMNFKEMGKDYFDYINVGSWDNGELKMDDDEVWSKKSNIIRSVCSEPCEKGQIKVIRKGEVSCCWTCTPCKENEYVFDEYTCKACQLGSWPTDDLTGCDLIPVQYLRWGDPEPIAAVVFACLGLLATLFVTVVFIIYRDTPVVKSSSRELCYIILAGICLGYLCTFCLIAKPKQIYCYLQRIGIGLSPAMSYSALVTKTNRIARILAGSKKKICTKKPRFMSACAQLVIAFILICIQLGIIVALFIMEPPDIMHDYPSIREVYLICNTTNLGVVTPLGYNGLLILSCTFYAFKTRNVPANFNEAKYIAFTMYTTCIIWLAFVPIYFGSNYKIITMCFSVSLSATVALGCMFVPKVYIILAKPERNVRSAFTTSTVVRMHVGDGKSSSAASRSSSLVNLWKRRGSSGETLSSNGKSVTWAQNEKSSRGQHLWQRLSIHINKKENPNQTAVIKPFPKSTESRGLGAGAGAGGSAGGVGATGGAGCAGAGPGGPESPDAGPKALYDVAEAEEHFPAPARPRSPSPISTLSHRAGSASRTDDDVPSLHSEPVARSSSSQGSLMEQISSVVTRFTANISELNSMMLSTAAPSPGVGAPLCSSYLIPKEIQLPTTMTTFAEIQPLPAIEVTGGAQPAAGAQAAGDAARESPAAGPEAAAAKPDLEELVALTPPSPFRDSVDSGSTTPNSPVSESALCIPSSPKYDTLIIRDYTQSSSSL

| SMILES | EC50 [nM] | Emax [%] |
| --- | --- | --- |
| CO[C@H]1C(=O)N(c2ncc(C#Cc3cccc(F)c3)cn2)CC1(C)C (single isomer, unassigned) [Example 132, (S or R)-1-[5-(3-Fluoro-phenylethynyl)-pyrimidin-2-yl]-3-methoxy-4,4-dimethyl-pyrrolidin-2-one] | 21 | 69 |
| CN1C(=O)N(c2ncc(C#Cc3cc(F)ccc3F)cn2)CCC1(C)C [Example 139, 5′-(2,5-Difluoro-phenylethynyl)-3,4,4-trimethyl-3,4,5,6-tetrahydro-[1,2′]bipyrimidinyl-2-one] | 57 | 54 |
| CC1(C)CCN(c2ccc(C#Cc3cncc(Cl)c3)cn2)C(=O)C1 [Example 90, 5′-(5-Chloro-pyridin-3-ylethynyl)-4,4-dimethyl-3,4,5,6-tetrahydro-[1,2′]bipyridinyl-2-one] | 66 | 90 |
| CN1C(=O)N(c2ccc(C#Cc3ccccc3)nn2)[C@@H]2CCC[C@@H]21 (racemic) [Example 170, (3aRS,6aSR)-1-Methyl-3-(6-phenylethynyl-pyridazin-3-yl)-hexahydro-cyclopentaimidazol-2-one] | 13 | 105 |
| CC1(C)CCN(c2ncc(C#Cc3ccccc3)cn2)C(=O)C1 [Example 134, 4,4-Dimethyl-1-(5-phenylethynyl-pyrimidin-2-yl)-piperidin-2-one] | 42 | 90 |
| O=C1CC2(CCCC2)CN1c1ccc(C#Cc2ccccc2)cn1 [Example 59, 2-(5-Phenylethynyl-pyridin-2-yl)-2-aza-spiro[4.4]nonan-3-one] | 16 | 81 |
| CO[C@H]1C(=O)N(c2ccc(C#Cc3ccccc3)cn2)CC1(C)C (single isomer, unassigned) [Example 62] | 12 | 86 |
| CN1C(=O)N(c2ccc(C#Cc3ccc(F)cc3)cn2)CCC1(C)C [Example 69, 1-[5-(4-Fluoro-phenylethynyl)-pyridin-2-yl]-3,4,4-trimethyl-tetrahydro-pyrimidin-2-one] | 49 | 107 |
| Cc1cccc(C#Cc2ccc(N3CC(C)(C)N(C)C3=O)nn2)c1 [Example 154, 3,4,4-Trimethyl-1-(6-(m-tolylethynyl)pyridazin-3-yl)imidazolidin-2-one] | 61 | 108 |
| COC1CN(c2ccc(C#Cc3cccc(F)c3)cn2)C(=O)OC1(C)C (racemic) [Example 169, (RS)-3-[5-(3-Fluoro-phenylethynyl)-pyridin-2-yl]-5-methoxy-6,6-dimethyl-[1,3]oxazinan-2-one] | 13 | 52 |
| CC1(C)CN(c2ncc(C#Cc3ccccc3)cc2F)C(=O)O1 [Example 1, 3-(3-Fluoro-5-phenylethynyl-pyridin-2-yl)-5,5-dimethyl-oxazolidin-2-one] | 30 | 68 |
| CO[C@@H]1C(=O)N(c2ncc(C#Cc3cccc(F)c3)cn2)CC1(C)C (single isomer, unassigned) [Example 131, (R or S)-1-[5-(3-Fluoro-phenylethynyl)-pyrimidin-2-yl]-3-methoxy-4,4-dimethyl-pyrrolidin-2-one] | 35 | 48 |
| O=C1O[C@H]2CCCC[C@H]2N1c1ccc(C#Cc2ccccc2)cn1 (racemic) [Example 47, (6SR,7RS)-3-(5-Phenylethynyl-pyridin-2-yl)-hexahydro-benzooxazol-2-one] | 36 | 109 |
| CN1C(=O)N(c2ccc(C#Cc3cnn(C)c3)cn2)CC1(C)C [Example 50, 3,4,4-Trimethyl-1-[5-(1-methyl-1H-pyrazol-4-ylethynyl)-pyridin-2-yl]-imidazolidin-2-one] | 27 | 41 |
| CC1(C)CCN(c2cnc(C#Cc3cccc(F)c3)cn2)C(=O)N1 [Example 166, 1-(5-((3-Fluorophenyl)ethynyl)pyrazin-2-yl)-4,4-dimethyltetrahydropyrimidin-2(1H)-one] | 140 | 56 |
| CC1(C)CCN(c2ccc(C#Cc3cncc(F)c3)cn2)C(=O)O1 [Example 74, 3-[5-(5-Fluoro-pyridin-3-ylethynyl)-pyridin-2-yl]-6,6-dimethyl-[1,3]oxazinan-2-one] | 59 | 108 |
| CC1(C)CC(=O)N(c2ncc(C#Cc3cccc(F)c3)cn2)C1 [Example 118, 1-[5-(3-Fluoro-phenylethynyl)-pyrimidin-2-yl]-4,4-dimethyl-pyrrolidin-2-one] | 13 | 78 |
| CN1C(=O)N(c2ccc(C#Cc3cncc(F)c3)cn2)C2CCCCC21 (stereo not drawn) [Example 86, (3aSR,7aRS)-(3aRS,7RS)-1-[5-(5-Fluoro-pyridin-3-ylethynyl)-pyridin-2-yl]-3-methyl-octahydro-benzoimidazol-2-one] | 32 | 52 |
| CN1C(=O)N(c2ccc(C#Cc3cncc(F)c3)cn2)CC1(C)C [Example 49, 1-[5-(5-Fluoro-pyridin-3-ylethynyl)-pyridin-2-yl]-3,4,4-trimethyl-imidazolidin-2-one] | 37 | 91 |
| CN1C(=O)N(c2ccc(C#Cc3ccccc3)cn2)CC1C1CCCC1 (racemic) [Example 45, (RS)-4-Cyclopentyl-3-methyl-1-(5-phenylethynyl-pyridin-2-yl)-imidazolidin-2-one] | 57 | 97 |
| CN1C(=O)N(c2ccc(C#Cc3ccccc3)cn2)CC1(C)C [Example 16, 3,4,4-Trimethyl-1-(5-phenylethynyl-pyridin-2-yl)-imidazolidin-2-one] | 35 | 103 |
| CC1(C)CC(=O)N(c2ccc(C#Cc3ccccc3)nn2)C1 [Example 150, 4,4-Dimethyl-1-(6-(phenylethynyl)pyridazin-3-yl)pyrrolidin-2-one] | 21 | 113 |
| CN1C(=O)N(c2ccc(C#Cc3cccc(F)c3)nn2)[C@@H]2CCC[C@@H]21 (racemic) [Example 174, (3aSR,6aRS)-1-[6-(3-Fluoro-phenylethynyl)-pyridazin-3-yl]-3-methyl-hexahydro-cyclopentaimidazol-2-one] | 12 | 56 |
| CN1C(=O)N(c2ccc(C#Cc3ccccc3)cn2)C2CCCCC21 (stereo not drawn) [Example 84, (3 aSR,7aRS)-(3aRS,7RS)-1-Methyl-3-(5-phenylethynyl-pyridin-2-yl)-octahydro-benzoimidazol-2-one] | 11 | 64 |
| CN1C(=O)N(c2cnc(C#Cc3ccccc3)cn2)CCC1(C)C [Example 165, 3,4,4-Trimethyl-1-(5-(phenylethynyl)pyrazin-2-yl)tetrahydropyrimidin-2(1H)-one] | 36 | 55 |
| COC1C(=O)N(c2ncc(C#Cc3cccc(F)c3)cn2)CC1(C)C (racemic) [Example 130, (RS)-1-[5-(3-Fluoro-phenylethynyl)-pyrimidin-2-yl]-3-methoxy-4,4-dimethyl-pyrrolidin-2-one] | 41 | 74 |
| CC1(C)CCC(=O)N(c2ccc(C#Cc3ccccc3)cn2)C1 [Example 42, 5,5-Dimethyl-5′-phenylethynyl-3,4,5,6-tetrahydro-[1,2′]bipyridinyl-2-one] | 16 | 139 |
| CC1(C)CN(c2ccc(C#Cc3cccc(F)c3)cn2)C(=O)O1 [Example 6, 3-[5-(3-Fluoro-phenylethynyl)-pyridin-2-yl]-5,5-dimethyl-oxazolidin-2-one] | 9 | 46 |

Reference: patent publication US9315498B2, “Arlethynyl derivatives” (Hoffmann-La Roche Inc., priority 2010, dated 2016)
